Measurements: ChEMBL document CHEMBL1132058, “Potent inhibitors of protein farnesyltransferase: heteroarenes as cysteine replacements” (Bioorg Med Chem Lett, 1999)

Legend:
[1] = target: Protein farnesyltransferase (Homo sapiens, UniProt P49354+P49356); assay: Inhibitory activity against farnesyltransferase (FT) using SPA assay; assay type: protein-complex assay
NIH3T3 [2] = assay: (§1) Inhibition of H-ras processing in subconfluent H-Ras-transformed NIH3T3 cells; assay type: functional, Mus musculus; design: concentration or dose not given beside the values
NIH3T3 [3] = assay: as §1; assay type: functional, Mus musculus
NIH3T3 [4] = assay: as §1; assay type: functional, cell-based; settings: Mus musculus
NIH3T3 [5] = assay: Inhibition of H-ras processing in subconfluent H-Ras-transformed NIH3T3 cells at 1 uM; assay type: functional; settings: Mus musculus
[6] = Half life period in rat after IV administration at a dose of 10 mg/kg; assay type: ADME, organism-based; design: dose 10 mg/kg, route intravenous; settings: in vivo
[7] = Cmax value in dog after oral administration at a dose of 5 mg/kg; assay type: ADME, organism-based, Canis lupus familiaris; design: dose 5 mg/kg, route oral; settings: in vivo
[8] = AUC value in rat after oral administration at a dose of 10 mg/kg; assay type: ADME, organism-based; design: dose 10 mg/kg, route oral; settings: plasma
[9] = AUC value in dog after oral administration at a dose of 5 mg/kg; assay type: ADME, organism-based, Canis lupus familiaris; design: dose 5 mg/kg, route oral; settings: plasma
[10] = Tmax value in dog after oral administration at a dose of 5 mg/kg; assay type: ADME, organism-based, Canis lupus familiaris; design: dose 5 mg/kg, route oral; settings: in vivo
[11] = Cmax value in rat after oral administration at a dose of 10 mg/kg; assay type: ADME, organism-based; design: dose 10 mg/kg, route oral; settings: in vivo
[12] = Bioavailability in dog after oral administration at a dose of 5 mg/kg; assay type: ADME, organism-based, Canis lupus familiaris; settings: in vivo
[13] = Bioavailability in rat after oral administration at a dose of 10 mg/kg; assay type: ADME, organism-based; settings: in vivo
[14] = Tmax value in rat after oral administration at a dose of 10 mg/kg; assay type: ADME, organism-based; design: dose 10 mg/kg, route oral; settings: in vivo
[15] = AUC value in dog after IV administration at a dose of 5 mg/kg; assay type: ADME, organism-based, Canis lupus familiaris; design: dose 5 mg/kg, route intravenous; settings: plasma
[16] = AUC value in rat after IV administration at a dose of 10 mg/kg; assay type: ADME, organism-based; design: dose 10 mg/kg, route intravenous; settings: plasma
[17] = Half life period in dog after IV administration at a dose of 5 mg/kg; assay type: ADME, organism-based, Canis lupus familiaris; design: dose 5 mg/kg, route intravenous; settings: in vivo

IC50 [1] [nM]	SMILES	Inhibition (NIH3T3 [2]) [%]	other results
0.12	CSCC[C@H](NC(=O)c1ccc(/C=C/c2cnccc2C(=O)[C@]23C[C@H]4C[C@H](C[C@H](C4)C2)C3)cc1-c1ccccc1C)C(=O)O	74	–
0.66	CSCC[C@H](NC(=O)c1ccc(/C=C/c2cnccc2C(O)(c2ccccc2)c2ccccc2)cc1-c1ccccc1C)C(=O)O	–	Inhibition (NIH3T3 [3]): 63%
2.7	CSCC[C@H](NC(=O)c1ccc(C#Cc2cccnc2)cc1-c1ccccc1C)C(=O)O	–	EC50 (NIH3T3 [4]): 1000 nM
140	CSCC[C@H](NC(=O)c1ccc(C#Cc2cncnc2)cc1-c1ccccc1C)C(=O)O	–	–
0.91	CSCC[C@H](NC(=O)c1ccc(/C(=C/c2cccnc2)C(=O)OC(C)(C)C)cc1-c1ccccc1C)C(=O)O	80	–
0.4	CSCC[C@H](NC(=O)c1ccc(COc2cccnc2)cc1-c1ccccc1C)C(=O)O	–	–
0.21	CSCC[C@H](NC(=O)c1ccc(CCn2ccnc2)cc1-c1ccccc1C)C(=O)O	–	EC50 (NIH3T3 [4]): > 1000 nM
16	CSCC[C@H](NC(=O)c1ccc(/C=C/c2cnc3ccccc3c2)cc1-c1ccccc1C)C(=O)O	–	EC50 (NIH3T3 [4]): > 1000 nM
4.7	CSCC[C@H](NC(=O)c1ccc(/C=C/c2cncc(Cc3ccccc3)c2)cc1-c1ccccc1C)C(=O)O	–	EC50 (NIH3T3 [4]): > 1000 nM
0.81	CSCC[C@H](NC(=O)c1ccc(/C=C/c2cnccc2C2(O)CCCCC2)cc1-c1ccccc1C)C(=O)O	74	–
26	CSCC[C@H](NC(=O)c1ccc(/C=C/c2ccc(Oc3ccccc3)nc2)cc1-c1ccccc1C)C(=O)O	–	–
2.1	CSCC[C@H](NC(=O)c1ccc(CCc2cccnc2)cc1-c1ccccc1C)C(=O)O	–	–
0.3	CSCC[C@H](NC(=O)c1ccc(/C=C/c2cnccc2OCc2cc(F)cc(F)c2)cc1-c1ccccc1C)C(=O)O	–	–
12	CSCC[C@H](NC(=O)c1ccc(/C=C/c2cncc(-c3ccccc3)c2)cc1-c1ccccc1C)C(=O)O	–	–
0.54	CSCC[C@H](NC(=O)c1ccc(/C=C/c2cnccc2C(O)C2CCCCC2)cc1-c1ccccc1C)C(=O)O (stereo partly specified)	63	–
0.29	CSCC[C@H](NC(=O)c1ccc(/C=C/c2cnccc2O)cc1-c1ccccc1C)C(=O)O	75	–
0.8	CSCC[C@H](NC(=O)c1ccc(/C=C/c2cncc3ccccc23)cc1-c1ccccc1C)C(=O)O	–	inhibition at 1 µM (NIH3T3 [5]): 64%

IC50 [1] [nM]	SMILES	Inhibition (NIH3T3 [2]) [%]	other results
2.4	CSCC[C@H](NC(=O)c1ccc(/C=C/c2cncs2)cc1-c1ccccc1C)C(=O)O	–	EC50 (NIH3T3 [4]): > 1000 nM
3.6	CSCC[C@H](NC(=O)c1ccc(/C(C#N)=C\c2cccnc2)cc1-c1ccccc1C)C(=O)O	60	–
2.9	COc1ccncc1/C=C/c1ccc(C(=O)N[C@@H](CCSC)C(=O)O)c(-c2ccccc2C)c1	66	–
0.61	CSCC[C@H](NC(=O)c1ccc(/C=C/c2cccnc2)cc1-c1ccccc1C)C(=O)O	–	half-life [6]: 129 min; Inhibition (NIH3T3 [3]): 79%; Cmax [7]: 2830 ng/mL; AUC [8]: 870 ng·h/mL; AUC [9]: 2560 ng·h/mL; Tmax [10]: 22.8 min; Cmax [11]: 321 ng/mL; bioavailability [12]: 24.5%; bioavailability [13]: 23%; Tmax [14]: 19.8 min; AUC [15]: 10500 ng·h/mL; AUC [16]: 6660 ng·h/mL; half-life [17]: 33 min
1.4	CCCOc1ccncc1/C=C/c1ccc(C(=O)N[C@@H](CCSC)C(=O)O)c(-c2ccccc2C)c1	49	–
0.59	CSCC[C@H](NC(=O)c1ccc(/C(C#N)=C/c2cccnc2)cc1-c1ccccc1C)C(=O)O	57	–
–	CSCC[C@H](NC(=O)c1ccc(NC[C@@H](N)CS)cc1-c1ccccc1)C(=O)O	–	EC50 (NIH3T3 [4]): 1000 nM
0.63	CSCC[C@H](NC(=O)c1ccc(/C=C/c2c[nH]cn2)cc1-c1ccccc1C)C(=O)O	–	EC50 (NIH3T3 [4]): > 1000 nM
57	CSCC[C@H](NC(=O)c1ccc(/C=C/c2cnccn2)cc1-c1ccccc1C)C(=O)O	–	–
0.15	CSCC[C@H](NC(=O)c1ccc(CCc2c[nH]cn2)cc1-c1ccccc1C)C(=O)O	–	EC50 (NIH3T3 [4]): > 1000 nM
0.29	CSCC[C@H](NC(=O)c1ccc(/C=C/c2cnccc2Cl)cc1-c1ccccc1C)C(=O)O	60	–
0.2	CSCC[C@H](NC(=O)c1ccc(/C=C/n2ccnc2)cc1-c1ccccc1C)C(=O)O	–	EC50 (NIH3T3 [4]): > 1000 nM
0.58	CSCC[C@H](NC(=O)c1ccc(/C=C/c2cnccc2C(O)c2ccccc2)cc1-c1ccccc1C)C(=O)O (stereo partly specified)	–	Inhibition (NIH3T3 [3]): 67%
0.37	CSCC[C@H](NC(=O)c1ccc(/C=C/c2cnccc2C(O)[C@]23C[C@H]4C[C@H](C[C@H](C4)C2)C3)cc1-c1ccccc1C)C(=O)O (stereo partly specified)	61	–
15	CSCC[C@H](NC(=O)c1ccc(/C(=C\c2cccnc2)C(=O)OC(C)(C)C)cc1-c1ccccc1C)C(=O)O	35	–
0.92	CSCC[C@H](NC(=O)c1ccc(/C=C/c2cnccc2C(=O)c2ccccc2)cc1-c1ccccc1C)C(=O)O	–	EC50 (NIH3T3 [4]): 1000 nM
25	CSCC[C@H](NC(=O)c1ccc(/C=C/c2cncnc2)cc1-c1ccccc1C)C(=O)O	–	–
